Test results taken from publication PMC10044445, “Tuning the Anthranilamide Peptidomimetic Design to Selectively Target Planktonic Bacteria and Biofilm” (Antibiotics, 2023).
Converted amounts (≈) assume the structure as drawn. Like-named read-outs stand apart in the source and are kept apart here. Values belong to the compound of their own block, whether it stands above or below them.

Key:
[1] = system: E. coli; design: method as in PMID 30070287; settings: cited from earlier work
[2] = system: MRC-5 human fibroblasts; design: method as in PMID 30070287; settings: cited from earlier work
[3] = system: S. aureus; design: method as in PMID 30070287; settings: cited from earlier work
[4] = system: S. aureus biofilms; test: Disruption of established biofilm, crystal violet staining; format: cell-based; settings: 24 h treatment
Description: (§1) Bacteria in biofilms are 10–1000 times more resistant to conventional antibiotics than planktonic bacteria. Moreover, biofilms are insensitive to antiseptics and many host immune responses. Since up to 80% of all microbial infections are biofilm-related, an effective antibacterial agent should also be able to disrupt established biofilms to tackle bacterial infections.
(§2) Bacterial cultures (S. aureus and E. coli) were grown in MHB media overnight at 37 °C with shaking at 120 rpm. Cultures were diluted (1:20) in an MHB medium and 200 μL aliquots were dispensed to flat bottom 96-well plate wells (Sarstedt, Mawson Lakes, Australia). Cultures were supplemented with varying concentrations of synthetic compounds dissolved in DMSO. Biofilm was grown in a 96-well plate for 24 h followed by the addition of synthetic compounds and incubated further for 24 h. Plates were sealed with self-adhesive microplate sealers (TopSeal-A, PerkinElmer) to allow air diffusion and to prevent condensation. Biofilms adhered on polystyrene substratum were quantified by crystal violet staining as described previously. The experiment was performed in triplicate.
Figure 4 Disruption of established biofilms of S. aureus after 24 h treatment with 1× to 8× MIC concentrations of compounds 13d, 16b, 19a, 19b. The positive control represents the pre-established biofilms without any compounds. Error bars indicate the standard error of the mean (SEM) of three independent experiments.

[5] = system: E. coli biofilms; test: as above; format: cell-based; settings: 24 h treatment; for disruption of established E. coli biofilm (in words): 1× to 8× MIC; for disruption of E. coli biofilm mass: 2× MIC (62.4 µM)
Description: as §1, §2
Figure 5 Disruption of established biofilm of E. coli after 24 h treatment with 1× to 8× MIC concentrations of compounds 13d, 16b, 19a, and 19b. The negative control represents pre-established biofilms without any compounds. Error bars indicate the standard error of the mean (SEM) of three independent experiments.

[6] = system: E. coli; test: Minimum inhibitory concentration, broth microdilution (CLSI); format: cell-based, Escherichia coli; settings: for MIC90 / MIC: Escherichia coli; for MIC90: broth microdilution in MHB, 18–24 h; for MIC: Table 2, lysine derivative versus parent, read-out: MIC E. coli
Description: (§3) The antimicrobial activity of the compounds was evaluated by a broth microdilution assay using the procedure described by CLSI. Briefly, bacteria were grown to mid-log phase in Muller Hinton broth (MHB) with shaking at 120 rpm and incubated at 37 °C for 12–16 h. Following incubation, bacteria were washed three times in PBS pH 7.4 at 3500 g for 10 min. After washing, bacteria were diluted with fresh MHB. The turbidity of the bacterial suspensions was adjusted so that OD660nm was 0.1, which gave 1 × 10^8 CFU/mL, and then further diluted to achieve 5 × 10^5 CFU/mL as a final bacterial concentration. Each compound was diluted (250–3.9 µM) through two-fold dilution. Wells in microtiter plates were loaded with 100 µL of inoculum containing 5 × 10^5 CFU/mL bacteria. Wells without any compound and containing only bacteria were used as negative controls (i.e., no inhibition of growth). Wells with media only were set as blank. The microtiter plate was wrapped with paraffin to prevent evaporation and incubated with shaking at 120 rpm and 37 °C for 18–24 h. After incubation, spectrophotometric readings were taken. The well without any bacterial growth and showing zero spectrophotometric reading was regarded as the MIC of the compounds.

[7] = system: S. aureus 38; test: Cytoplasmic membrane permeability (depolarization) assay with DiSC3(5); format: cell-based; settings: 2× MIC
Description: (§4) Compounds 13d (series I), 16b (series II), 19a (series III) and 19b (series III) were selected as representative examples of each series with strong antibacterial activities (particularly against S. aureus). As AMPs are known to be membrane-targeting, membrane permeability assays are frequently used to confirm the mode of action of peptidomimetics. In this assay, S. aureus and E. coli were treated with the active compounds in the presence of the membrane potential-sensitive cyanine dye 3,3′-dipropylthiadicarbocyanine iodide (DiSC3(5)). Perturbation of the membrane by the compounds leads to loss of the membrane potential gradient (depolarization), causing the dye to be released into the medium and resulting in an increase in fluorescence intensity.
(§5) The method was adopted from Wu et al. with slight modifications. Bacterial cytoplasmic membrane permeability was determined using membrane potential sensitive dye diSC3-5 (3,3′-dipropylthiadicarbocyanine iodide) which penetrates inside bacterial cells depending on the membrane potential gradient of the cytoplasmic membrane. Bacteria were grown in MHB to mid-log phase by incubating with shaking at 37 °C for 18–24 h. Following incubation, bacteria were washed with 5 mM HEPES containing 20 mM glucose pH 7.2 and resuspended in the same buffer to an OD600 0.05–0.06 which gave 1 × 10^7 CFU/mL. The dye diSC3-5 was added at 4 µM to the bacterial suspension. The suspensions were incubated at room temperature for 1 h in the dark for maximum dye take-up by the bacterial cells. Then, 100 mM KCl was added to balance the K+ outside and inside the bacterial cell to prevent further uptake or outflow of the dye. For Gram-negative bacteria, 0.5 mM EDTA was used to destabilize the lipopolysaccharides-Mg^2+-Ca^2+ complex to help in dye penetration without affecting bacterial growth. A total of 100 µL of bacterial suspension was added to 96-well microtiter plate and with equal volume of antimicrobial compounds. DMSO (20%) was set as a positive control while dye and only bacterial cells were set as a negative control. Fluorescence was measured with a luminescence spectrophotometer at 3 min intervals at an excitation wavelength of 622 nm and an emission wavelength of 670 nm.
(§6) Figure 2 Cytoplasmic membrane depolarization of S. aureus 38 and E. coli K12 by 13d, 16b, 19a, 19b, as assessed by release of the membrane potential-sensitive dye DiSC3(5) measured spectroscopically at λex = 622 nm and λem = 670 nm at 2× MIC concentration. Data are presented as means (±SD) of three independent repeats. 20% DMSO was used as a positive control.

[8] = system: E. coli K12; test: as above; format: cell-based; settings: 2× MIC
Description: as §4, §5, §6

[9] = system: S. aureus; test: Minimum inhibitory concentration, broth microdilution (CLSI); format: cell-based, Staphylococcus aureus; settings: for MIC90: broth microdilution in MHB, 18–24 h; for MIC: Table 2, lysine derivative versus parent, read-out: MIC S. aureus
Description: as §3

[10] = system: Bacillus subtilis strain BS23; test: Membrane integrity study, epifluorescence microscopy (atpA-GFP); format: cell-based; settings: 50 μM, 45 min
Description: The mechanism of action of compounds 16b, 19a, and […] was further studied using Bacillus subtilis strain BS23, which contains a fusion of green fluorescence protein (GFP) to the α-subunit of the membrane-localized ATP synthase. In the assay, if the compounds damage the membrane, the green fluorescence will change from a uniform distribution to a clustered distribution. Epifluorescence microscopy was used to image the changes in the cells.
Bacillus subtilis BS23 (atpA-GFP) was grown in LB (10 g/L Tryptone, 5 g/L Yeast Extract, 5 g/L NaCl) supplemented with 0.5% (w/v) xylose at 37 °C, to an OD600 of 0.3 and then treated with 50 μM of the AMP mimics, 10 μg/mL of colistin or 0.25% (v/v) DMSO (vehicle control). The cells were grown for a further 45 min before being examined by epifluorescence microscopy. Micrographs were background subtracted, merged, and aligned in images.
Figure 3 Epifluorescence microscopy images showing membrane integrity of B. subtilis strain BS23 treated with colistin (10 µg/mL) and compounds 16b, 19a, and 19b (50 µM).

[11] = system: MRC-5 human fibroblasts; test: Toxicity assay, Alamar Blue; format: cell-based; settings: for IC50: MRC5, MRC-5 human fibroblasts, 72 h drug incubation, Alamar Blue
Description: Normal human lung fibroblasts MRC-5 were cultured in minimal essential medium (MEM, Invitrogen) supplemented with 10% foetal calf serum (FCS), 1% L-glutamine–penicillin–streptomycin, 2% sodium bicarbonate, 1% non-essential amino acids (NEAA), and 1% sodium pyruvate. The cell line was maintained at 37 °C in 5% CO2 as an adherent monolayer and was passaged upon reaching confluence by standard cell culture techniques. MRC-5 cells were seeded at 2 × 10^4 cells per well in 96-well plates to ensure full confluence (quiescence). Cells were treated for 24 h after seeding with 0.1 to 1000 μM of compounds. After 72 h of drug incubation, the treated media was replaced with fresh media containing 10% Alamar Blue and the cells were incubated for another 6 h. The metabolic activity was detected by spectrophotometric analysis by assessing the absorbance of Alamar blue as previously described by Pasquier et al. Cell proliferation was determined and expressed as a percentage of untreated control cells. The determination of IC50 values was performed using GraphPad Prism 6 (San Diego, CA, USA). Each experiment was performed in triplicate and was repeated in three independent experiments.

SMILES: NCCNC(=O)[C@H](Cc1c[nH]c2ccccc12)NC(=O)c1cc(Br)ccc1NC(=O)c1ccc2ccccc2c1 [Compound 12a]
MIC E. coli ([1]; Table 2, parent compound): > 125 µM
MIC90 E. coli ([1]; value of earlier paper): > 125 µM
IC50 [2]: < 20 µM
MIC S. aureus ([3]; Table 2, parent compound): 3.9 µM (≈ 2.33 µg/mL)
MIC90 S. aureus ([3]; value of earlier paper): 3.9 µM (≈ 2.33 µg/mL)

MIC90 [6]: 62.5 µM (≈ 40.2 µg/mL)
MIC90 ([9]; Staphylococcus aureus): 3.9 µM (≈ 2.51 µg/mL)
SMILES: COc1cc2ccccc2cc1C(=O)Nc1ccc(Br)cc1C(=O)N[C@@H](Cc1c[nH]c2ccccc12)C(=O)NCCCN [Compound 13d, (S)-N-(2-((1-((3-aminopropyl)amino)-3-(1H-indol-3-yl)-1-oxopropan-2-yl)carbamoyl)-4-bromophenyl)-3-methoxy-2-naphthamide]
disruption of established S. aureus biofilm ([4]; 4× MIC (15.6 µM)): 75%
disruption of established S. aureus biofilm ([4]; 8× MIC (31.2 µM)): 99%
disruption of established E. coli biofilm (in words) [5]: significant disruption
disruption of E. coli biofilm mass [5]: 59%
cytoplasmic membrane depolarization (DiSC3(5) release) [7]: relatively inactive
cytoplasmic membrane depolarization (DiSC3(5) release) [8]: relatively inactive

SMILES: NCCNC(=O)[C@H](Cc1c[nH]c2ccccc12)NC(=O)c1cc(-c2ccc3ccccc3c2)ccc1N [Compound 16b, (S)-2-amino-N-(1-((2-aminoethyl)amino)-3-(1H-indol-3-yl)-1-oxopropan-2-yl)-5-(naphthalen-2-yl)benzamide]
disruption of established S. aureus biofilm ([4]; 4× MIC (15.6 µM)): 93%
disruption of established E. coli biofilm (in words) [5]: not effective
MIC90 [6]: 31.2 µM (≈ 15.3 µg/mL)
MIC90 ([9]; Staphylococcus aureus): 3.9 µM (≈ 1.92 µg/mL)
membrane damage (clustering of GFP fluorescence) [10]: caused membrane damage
IC50 [11]: 24.6 µM

SMILES: NCCCC[C@H](N)C(=O)NCCNC(=O)[C@H](Cc1c[nH]c2ccccc12)NC(=O)c1cc(Br)ccc1NC(=O)c1ccc2ccccc2c1 [Compound 19a, N-(4-bromo-2-(((S)-1-((2-((S)-2,6-diaminohexanamido)ethyl)amino)-3-(1H-indol-3-yl)-1-oxopropan-2-yl)carbamoyl)phenyl)-2-naphthamide]
disruption of established S. aureus biofilm ([4]; 2× MIC (31.2 µM)): over 60%
disruption of established S. aureus biofilm ([4]; 8× MIC (125 µM)): ~99%
disruption of established E. coli biofilm (in words) [5]: not effective
MIC [6]: 15.6 µM (≈ 11.3 µg/mL)
MIC90 [6]: 15.6 µM (≈ 11.3 µg/mL)
improvement in antibacterial activity against E. coli compared to the parent compound ([6]; versus parent 12a, 12j): > 16 fold
cytoplasmic membrane depolarization (DiSC3(5) release) [8]: greater membrane disruption in E. coli than in S. aureus
MIC ([9]; Staphylococcus aureus): 15.6 µM (≈ 11.3 µg/mL)
MIC90 ([9]; Staphylococcus aureus): 15.6 µM (≈ 11.3 µg/mL)
membrane damage (clustering of GFP fluorescence) [10]: caused membrane damage
IC50 [11]: 83.9 µM

SMILES: NCCCC[C@H](N)C(=O)NCCNC(=O)[C@H](Cc1c[nH]c2ccccc12)NC(=O)c1cc(Br)ccc1NC(=O)c1cccc(-c2ccccc2)c1 [Compound 19b, N-(4-bromo-2-(((S)-1-((2-((S)-2,6-diaminohexanamido)ethyl)amino)-3-(1H-indol-3-yl)-1-oxopropan-2-yl)carbamoyl)phenyl)-[1,1′-biphenyl]-3-carboxamide]
disruption of established S. aureus biofilm ([4]; 2× MIC (31.2 µM)): over 60%
disruption of established S. aureus biofilm ([4]; 8× MIC (125 µM)): ~99%
disruption of established E. coli biofilm (in words) [5]: significant disruption
disruption of E. coli biofilm mass [5]: little effect
MIC [6]: 15.6 µM (≈ 11.7 µg/mL)
MIC90 [6]: 15.6 µM (≈ 11.7 µg/mL)
cytoplasmic membrane depolarization (DiSC3(5) release) [7]: reversed trend
MIC ([9]; Staphylococcus aureus): 15.6 µM (≈ 11.7 µg/mL)
MIC90 ([9]; Staphylococcus aureus): 15.6 µM (≈ 11.7 µg/mL)
MIC90 [9]: 15.6 µM (≈ 11.7 µg/mL)
membrane damage (clustering of GFP fluorescence) [10]: caused membrane damage
therapeutic window: IC50 to human cells over MIC90 ([11]; IC50 MRC-5 versus MIC90 for either S. aureus or E. coli): over 10 times
IC50 [11]: 164 µM
